Reference: the NIST ThermoML archive (doi:10.1016/j.jct.2016.09.014)
± gives the expanded uncertainty stated by the source.

Assay: mn = molality of the nth substance listed, in mol/kg
Conditions: 298.15 K, 101.3 kPa, Liquid; for binary diffusion coefficient: Taylor dispersion method; for mass density: Vibrating tube method

**Q.** What does the source list for `NCCCC(=O)O` [4-aminobutanoic acid] + O?
**A.** binary diffusion coefficient (m1 = 0.001003): 7.8e-10 m2/s; binary diffusion coefficient (m1 = 0.005016): 7.79e-10 m2/s; binary diffusion coefficient (m1 = 0.01004): 7.78e-10 m2/s; binary diffusion coefficient (m1 = 0.02009): 7.77e-10 m2/s; binary diffusion coefficient (m1 = 0.03015): 7.76e-10 m2/s; binary diffusion coefficient (m1 = 0.05033): 7.72e-10 m2/s; binary diffusion coefficient (m1 = 0.101): 7.65e-10 m2/s; mass density (m1 = 0.00106): 997.083 ± 0.31 kg/m3; mass density (m1 = 0.00258): 997.127 ± 0.31 kg/m3; mass density (m1 = 0.00467): 997.199 ± 0.31 kg/m3; mass density (m1 = 0.00517): 997.203 ± 0.31 kg/m3; mass density (m1 = 0.00833): 997.308 ± 0.31 kg/m3; mass density (m1 = 0.01088): 997.389 ± 0.31 kg/m3; mass density (m1 = 0.01968): 997.658 ± 0.31 kg/m3; mass density (m1 = 0.03823): 998.069 ± 0.31 kg/m3; mass density (m1 = 0.05427): 998.687 ± 0.31 kg/m3; mass density (m1 = 0.06297): 998.944 ± 0.31 kg/m3; mass density (m1 = 0.07297): 999.113 ± 0.31 kg/m3; mass density (m1 = 0.1017): 1000.1 ± 0.31 kg/m3
